Data reported in paper PMC11502347 (Frontiers in Microbiology, 2024).
≈ marks a conversion by molar mass, not a printed value.

Key:
[1] = tested on: Enterobacter aerogenes ATCC 13048 T; assay: microbe, parasite or virus in culture; type: cell-based; details: Klebsiella aerogenes, ATCC13048
[2] = tested on: Mtb CF 105 (MDR); type: cell-based, Mycobacterium tuberculosis; details: MDR clinical isolate; REMA, 7 days
[3] = tested on: Mtb H37Rv; assay: In vivo infection and treatment, BALB/c mice; details: daily oral 4 weeks, 5n 200 mg/kg, RFP 15 mg/kg
[4] = tested on: M. smegmatis; type: cell-based, Mycobacterium smegmatis; details: Sensitive; REMA, 2 days
[5] = tested on: Gram-negative, Gram-positive bacteria, and fungi, including Candida albicans; assay: microbe, parasite or virus in culture; type: cell-based; details: all the bacterial and fungal strains tested (Table 2), read-out: MIC90 for all species analyzed
[6] = tested on: Enterococcus faecalis ATCC 29212; assay: microbe, parasite or virus in culture; type: cell-based; details: ATCC29212
[7] = tested on: Mtb CF 48 (MDR); type: cell-based, Mycobacterium tuberculosis; details: MDR clinical isolate; REMA, 7 days
[8] = tested on: MRC-5 fibroblasts; assay: cells; type: cell-based; details: Homo sapiens, MRC5; cytotoxicity, resazurin; exposure 24 and 72 h, which one not given
[9] = tested on: M. bovis; type: cell-based, Mycobacterium bovis; details: Sensitive; REMA, 7 days
[10] = tested on: Staphylococcus saprophyticus subsp. saprophyticus ATCC 15305; assay: microbe, parasite or virus in culture; type: cell-based; details: ATCC15305
[11] = tested on: Murine macrophage J774.A1; assay: cells; type: cell-based; details: Mus musculus, cytotoxicity, resazurin, exposure 24 and 72 h, which one not given
[12] = tested on: Mtb CF 165 (MDR); type: cell-based, Mycobacterium tuberculosis; details: MDR clinical isolate; REMA, 7 days
[13] = tested on: Staphylococcus epidermidis ATCC 14990 T; assay: microbe, parasite or virus in culture; type: cell-based; details: ATCC14990
[14] = tested on: Mtb H37Rv; assay: Checkerboard assay of Bfx with RFP; type: cell-based, Mycobacterium tuberculosis
Protocol: To evaluate the interaction between Bfx and RFP, a checkerboard assay was conducted following the methodology proposed by Berenbaum ([Berenbaum, 1978]).Test compounds were serially diluted in Middlebrook 7H9 broth and arranged in a 96-well plate, starting with 2x MIC for each compound. RFP was also diluted horizontally based on its MIC90. The combinations of different concentrations of Bfx and RFP were incubated with Mtb (5 × 10⁵ CFU/mL) at 37°C and 5% CO₂ for 7 days. Post-incubation, 0.01% resazurin was added, and fluorescence readings were taken after 24 h to determine the Fractional Inhibitory Concentration Index (FICI). The combined effects of the compound combinations were classified according to the Fractional Inhibitory Concentration Index (FICI):
FICI=MICofdrug1incombination/MICofdrug1+MICofdrug2incombination/MICofdrug1

[15] = tested on: Proteus mirabilis ATCC 29906 T; assay: microbe, parasite or virus in culture; type: cell-based; details: ATCC29906
[16] = tested on: Klebsiella pneumoniae subsp. pneumoniae ATCC 13883 T; assay: microbe, parasite or virus in culture; type: cell-based; details: ATCC13883
[17] = tested on: Mtb CF 81 (Pre-XDR); type: cell-based, Mycobacterium tuberculosis; details: Pre-XDR clinical isolate; REMA, 7 days
[18] = tested on: Mtb CF 171 (MDR); type: cell-based, Mycobacterium tuberculosis; details: MDR clinical isolate; REMA, 7 days
[19] = tested on: Mtb CF 162 (MDR); type: cell-based, Mycobacterium tuberculosis; details: MDR clinical isolate; REMA, 7 days
[20] = tested on: Enterobacter cloacae subsp. cloacae ATCC 13883 T; assay: microbe, parasite or virus in culture; type: cell-based; details: ATCC13883
[21] = tested on: Klebsiella oxytoca CCT 0182; assay: microbe, parasite or virus in culture; type: cell-based; details: CCT0182
[22] = tested on: intracellular Mtb H37Rv in J774.A1 macrophages; assay: Intracellular antimycobacterial activity in infected macrophages; type: cell-based, Mycobacterium tuberculosis; details: 10x MIC, 72 h, CFU count
Protocol: Murine macrophage J774.A1 cells (1 × 10^6 cells/mL) were seeded in 24-well plates and incubated as previously described. After 24 h, the supernatant was discarded, and 1 mL of Mtb inoculum (2 × 10^6 CFU/mL) was added to the wells. The plate was incubated for 2 h to facilitate infection. Subsequently, the supernatant was removed, and the cells were washed with PBS. An amikacin solution (200 μg/mL) was added to ensure the sterility of the extracellular environment. After 2 h, the wells were washed, and treatments were applied (1x, 5x, and 10x MIC90 of Bfx or RFP). The cultures were then incubated for 72 h. After incubation, the cells were lysed using a Triton solution, and the supernatant was collected, serially diluted, and plated on Middlebrook 7H11 medium supplemented with 10% OADC. These plates were incubated for 20–30 days until colony-forming units (CFU) were counted ([Solcia et al., 2021]).

[23] = tested on: Citrobacter freundii ATCC 8030 T; assay: microbe, parasite or virus in culture; type: cell-based; details: ATCC8030
[24] = tested on: Enterococcus faecium NCTC 7171 T; assay: microbe, parasite or virus in culture; type: cell-based; details: NCTC7171
[25] = tested on: Mtb CF 61 (MDR); type: cell-based, Mycobacterium tuberculosis; details: MDR clinical isolate; REMA, 7 days
[26] = tested on: Mtb H37Rv; assay: microbe, parasite or virus in culture; type: cell-based, Mycobacterium tuberculosis; details: Mycobacterium tuberculosis, H37RV; Table 3
[27] = tested on: Candida albicans ATCC 90028; assay: microbe, parasite or virus in culture; type: cell-based; details: ATCC90028, Sabouraud broth, 48 h

O=C(Nc1ccc(N2CCN(c3ccccn3)CC2)c(F)c1)c1ccc2no[n+]([O-])c2c1 [Compound 5n]
MIC90 [1]: > 200 µM
CIM90 CF 105 [2]: > 57,26 μM
reduction of the pulmonary load ([3]; abstract): 3.0 log10 CFU/mL
reduction of bacterial load in the lungs ([3]; intranasal infection, 5b): 3.0 log10
CIM90 M. smegmatis [4]: 41,07 ± 10,05 μM
MIC90 [5]: > 200 µM
MIC90 [6]: > 200 µM
CIM90 CF 48 [7]: 22.38 ± 9.37 µM
IC50 [8]: > 222 µM
CIM90 M. bovis [9]: 27,03 ± 10,43 μM
MIC90 [10]: > 200 µM
IC50 [11]: > 230 µM
CIM90 CF 165 [12]: 1,84 ± 1,73 μM
MIC90 [13]: > 200 µM
Results (interaction with RFP) ([14]; Bfx combined with RFP): Synergistic (FICI values less than 0.5 indicate synergy)
MIC90 ([14]; Mycobacterium tuberculosis, H37RV, compound alone, Table S1): 0.09 µM
MIC90 combined ([14]; in the combination 5n + RFP): 0,00578 µM
MIC90 [15]: > 200 µM
MIC90 [16]: > 200 µM
CIM90 CF 81 [17]: 1,68 ± 1,32 μM
CIM90 CF 171 [18]: 0,26 ± 0,05 μM
CIM90 CF 162 [19]: 2,24 ± 1,47 μM
MIC90 [20]: > 200 µM
MIC90 [21]: > 200 µM
inhibition of bacterial load within macrophages [22]: 0.9 log10
MIC90 [23]: > 200 µM
MIC90 [24]: > 200 µM
CIM90 CF 61 [25]: 0,56 ± 0,47 μM
MIC90 [26]: 0.09 µM (≈ 0.0391 µg/mL)
MIC90 [27]: > 200 µM
